# Measured values: the supplement of paper PMC4858399
# Counter-ions that a name gives are not always drawn.
# Columns and labels:
# [1] = test system: Caenorhabditis elegans N2; assay: lowest effective concentration for larval growth inhibition (size below effect threshold); higher = less potent; settings: exposure time 48 h
# Procedure, shortened: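 Chemical exposure ran for 48 h at 20°C: 50 C. elegans N2 L1 larvae per 96-well in K-medium with killed bacteria, 1% DMSO and 0.5, 1, 5, 10, 50, 100 or 200 µM chemical. Extinction of each worm, read as size on the Biosort, was log-transformed and averaged by well. The lowest effective concentration is the first dose whose plate-adjusted mean size is below a fixed value and remains so at all higher doses; the value is 5.665.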
# [2] = test system: Caenorhabditis elegans N2; assay: mean nematode size ln(EXT) after 48 h, plate-adjusted (DMSO control set to 6) (ln(EXT), control-adjusted); higher = larger nematodes / less growth inhibition; settings: exposure time 48 h
# Procedure, shortened: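 Worms were measured individually for extinction on the Biosort after 48 h at 20°C. They began as synchronised C. elegans N2 L1 larvae in K-medium with killed OP50, 1% DMSO and 0.5–200 µM chemical. Once debris had been removed by a growth model, values were natural-logged and averaged per well to give mean size. The plate adjustment subtracted the vehicle control mean and added 6.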
Compound,lowest effective concentration [1],mean nematode size ln(EXT) (ln) ([2]; 0.5 µM),mean nematode size ln(EXT) (ln) ([2]; 1 µM),mean nematode size ln(EXT) (ln) ([2]; 5 µM),mean nematode size ln(EXT) (ln) ([2]; 10 µM),mean nematode size ln(EXT) (ln) ([2]; 50 µM),mean nematode size ln(EXT) (ln) ([2]; 100 µM),mean nematode size ln(EXT) (ln) ([2]; 200 µM)
CC(C)c1ccc(C(=O)N=C(N)N)cc1S(C)(=O)=O [Cariporide mesylate (HOE642)],> 200 µM,5.88,5.82,5.8,5.77,5.7,5.62,5.71
Oc1ccccc1O [Catechol],> 200 µM,5.94,5.82,5.86,5.84,5.9,5.95,5.72
Nc1cnn(-c2ccccc2)c(=O)c1Cl [Chloridazon],> 200 µM,5.51,5.47,5.3,6.01,5.44,5.44,5.89
O=C(O)CC(O)(CC(=O)O)C(=O)O [Citric acid],> 200 µM,5.85,6.03,6.03,5.9,5.99,5.63,5.73
Clc1ccccc1-c1nnc(-c2ccccc2Cl)nn1 [Clofentezine],> 200 µM,6.25,6.03,6.11,5.96,5.86,5.98,5.73
CC1(C)CON(Cc2ccccc2Cl)C1=O [Clomazone],> 200 µM,6.09,6.23,6.29,6.06,6.2,6.07,5.68
CC(Oc1cccc(Cl)c1)C(=O)O (configuration not stated) [Cloprop],> 200 µM,5.97,5.98,6.03,6.09,6.01,5.99,5.69
O=C(O)c1nc(Cl)ccc1Cl [Clopyralid-olamine],> 200 µM,5.87,5.89,5.95,5.89,5.88,5.98,5.95
O=C(O)c1nc(Cl)ccc1Cl [Clopyralid],> 200 µM,5.75,5.75,5.75,5.87,5.93,5.89,6.08
CN/C(=N\[N+](=O)[O-])NCc1cnc(Cl)s1 [Clothianidin],> 200 µM,5.89,5.99,5.78,6.1,6.05,6.02,5.96
COc1cc2c(c(OC)c1OC)-c1ccc(OC)c(=O)cc1[C@@H](NC(C)=O)CC2 [Colchicine],> 200 µM,5.82,5.93,5.87,5.95,5.92,5.89,5.7
O=c1ccc2ccccc2o1 [Coumarin],> 200 µM,5.93,5.92,5.85,5.93,5.94,5.95,5.8
N#CN [Cyanamide],> 200 µM,5.91,5.96,6.01,6,5.96,6.01,5.92
CCNc1nc(Cl)nc(NC(C)(C)C#N)n1 [Cyanazine],> 200 µM,5.89,5.95,5.88,6.03,6.26,6.42,5.86
O=C(O)C1(C(=O)Nc2ccc(Cl)cc2Cl)CC1 [Cyclanilide],> 200 µM,6.16,6.05,6.18,6.27,6.34,6.38,5.9
NC1CCCCC1 [Cyclohexylamine],> 200 µM,5.84,5.95,5.82,5.85,5.98,5.83,5.86
CC1(C)C(C=C(Cl)Cl)C1C(=O)OC(C#N)c1ccc(F)c(Oc2ccccc2)c1 (configuration not stated) [Cyfluthrin],> 200 µM,6.09,6.69,6.12,6.22,6.18,6.44,5.7
Nc1nc(N)nc(NC2CC2)n1 [Cyromazine],> 200 µM,5.45,5.67,5.56,5.57,5.42,6.14,5.94
O=P1(N(CCCl)CCCl)NCCCO1 (configuration not stated) [Cytoxan hydrate],> 200 µM,5.87,5.9,5.89,5.8,5.92,5.9,5.93
CC(Cl)(Cl)C(=O)O [Dalapon],> 200 µM,5.78,6.06,6.05,6.04,5.95,5.93,5.79
CN1CSC(=S)N(C)C1 [Dazomet],> 200 µM,5.73,5.62,5.46,5.71,5.78,5.55,5.83
CCCCCCCCCC [Decane],> 200 µM,5.95,5.8,5.91,5.8,5.87,5.83,5.75
O=C(OCCOCCOC(=O)c1ccccc1)c1ccccc1 [Di(ethylene glycol) dibenzoate],200 µM,5.89,5.82,5.77,5.76,5.71,5.79,5.66
CCCCCCCCOC(=O)c1ccccc1C(=O)OCCCCCCCC [Di-n-octyl phthalate],> 200 µM,5.93,5.87,5.9,5.85,5.88,5.83,5.83
